Measurements taken from patent EP0908457B1, “3-(1,2-benzisothiazol- and isoxazol-5-Y1)-2,4(1H,3H)-pyrimidinedione or thione and 3-(1,2-benzisothiazol- and isoxazol-5-y1)-4(3H)-pyrimidinone or thione herbicidal agents” (BASF AKTIENGESELLSCHAFT, priority 1997, dated 1999).

Tests used:
[1] = tested on: Monochoria vaginalis, Presl.; experiment: Preemergence weed control under flooded paddy conditions, MOOVA (Monochoria); type: in vivo; conditions: preemergence weeds, flooded paddy, herbicidal effect rating 0-9, three to four weeks after treatment
Cyperus iria = experiment: Preemergence weed control under flooded paddy conditions, CYPIR (Rice Flatsedge); type: in vivo; conditions: flooded paddy; for CYPIR: herbicidal effect rating 0-9, three to four weeks after treatment; for herbicidal effect rating, CYPIR: rated three to four weeks after treatment; for herbicidal effect rating, CYPIR: meaning of each grade not given here
[2] = tested on: Cyperus serotinus, Rottb.; experiment: Preemergence weed control under flooded paddy conditions, CYPSE (Flatsedge); type: in vivo; conditions: for CYPSE: herbicidal effect rating 0-9, three to four weeks after treatment; for herbicidal effect rating, CYPSE: rated three to four weeks after treatment; for herbicidal effect rating, CYPSE: meaning of each grade not given here
[3] = tested on: Echinochloa oryzoides (Ard.) Fritsch.; experiment: Preemergence weed control under flooded paddy conditions, ECHORC (Watergrass (Calif.)); type: in vivo; conditions: flooded paddy; for ECHORC: herbicidal effect rating 0-9, three to four weeks after treatment; for herbicidal effect rating, ECHORC: rated three to four weeks after treatment; for herbicidal effect rating, ECHORC: meaning of each grade not given here
[4] = tested on: Oryza sativa, (L.) Tebonnet; experiment: Rice tolerance to post-transplant applications under flooded paddy conditions (Example 187), ORYSAT (Rice, Tebonnet); conditions: for ORYSAT: herbicidal effect rating 0-9, three to four weeks after treatment; for herbicidal effect rating ORYSAT: rated three to four weeks after treatment
Sagittaria pygmaea, L. = experiment: Preemergence weed control under flooded paddy conditions, SAGPY (Arrowhead (Pygmaea)); type: in vivo; conditions: flooded paddy, rated three to four weeks after treatment; note: meaning of each grade not given here
[5] = 0.0320 kg/ha, preemergence weeds
[6] = 0.0620 kg/ha, preemergence weeds
[7] = 0.1250 kg/ha, preemergence weeds
[8] = 0.2500 kg/ha, preemergence weeds
[9] = Rate 0.0320 kg/ha, preemergence weeds
[10] = Rate 0.0620 kg/ha, preemergence weeds
[11] = Rate 0.1250 kg/ha, preemergence weeds
[12] = Rate 0.2500 kg/ha, preemergence weeds
[13] = Rate 0.0320 kg/ha, preemergence
[14] = Rate 0.0620 kg/ha, preemergence
[15] = Rate 0.1250 kg/ha, preemergence
[16] = Rate 0.2500 kg/ha, preemergence

Row | SMILES | MOOVA ([1]; 0.0320 kg/ha) | MOOVA ([1]; 0.0620 kg/ha) | MOOVA ([1]; 0.1250 kg/ha) | MOOVA ([1]; 0.2500 kg/ha) | CYPIR (Cyperus iria; [5]) | CYPIR (Cyperus iria; [6]) | CYPIR (Cyperus iria; [7]) | CYPIR (Cyperus iria; [8]) | CYPSE [2, 5] | CYPSE [2, 6] | ECHORC [3, 5] | ECHORC [3, 6] | ECHORC [3, 7] | ORYSAT ([4]; 0.0320 kg/ha) | ORYSAT ([4]; 0.0620 kg/ha) | ORYSAT ([4]; 0.1250 kg/ha) | ORYSAT ([4]; 0.2500 kg/ha) | herbicidal effect rating ORYSAT ([4]; Rate 0.0320 kg/ha) | herbicidal effect rating ORYSAT ([4]; Rate 0.0620 kg/ha) | herbicidal effect rating ORYSAT ([4]; Rate 0.1250 kg/ha) | other results
1 | CN(/N=C/c1nsc2ccc(-n3c(=O)cc(C(F)(F)F)n(C)c3=O)cc12)c1ccccc1 [Example 412, 1,2-Benzisothiazole-3-carboxaldehyde, 5-[3,6-dihydro-3-methyl-2,6-dioxo-4-(trifluoromethyl)-1(2H)-pyrimidinyl]-, 3-(methylphenylhydrazone), (E)-] | 7.0 | 9.0 | 9.0 | 9.0 | 0.0 | 0.0 | 4.0 | 8.0 | 0.0 | 0.0 | 0.0 | 0.0 | 0.0 | 0.0 | 0.0 | 2.0 | 4.0 |  |  |  | CYPSE [2, 7]: 4.0; CYPSE [2, 8]: 6.0
2 | CC(OS(=O)(=O)c1ccccc1)c1nsc2ccc(-n3c(=O)cc(C(F)(F)F)n(C)c3=O)cc12 (stereo not shown) [Example 415, 2,4(1H,3H)-Pyrimidinedione, 3-[3-(1-hydroxyethyl)-1,2-benzisothiazol-5-yl]-1-methyl-6-(trifluoromethyl)-, benzenesulfonate (ester)] | 5.0 | 5.0 | 5.0 | 8.0 | 0.0 | 0.0 | 2.0 | 6.0 | 0.0 | 0.0 | 0.0 | 0.0 | 3.0 | 3.0 | 4.0 | 5.0 | 9.0 |  |  |  | ECHORC [3, 8]: 9.0
3 | COCCOC(=O)c1nsc2ccc(-n3c(=O)cc(C(F)(F)F)n(C)c3=O)cc12 [Example 411, 1,2-Benzisothiazole-3-carboxylic acid, 5-[3,6-dihydro-3-methyl-2,6-dioxo-4-(trifluoromethyl)-1(2H)-pyrimidinyl]-, 2-methoxyethyl ester] | 9.0 | 9.0 | 9.0 | 9.0 | 0.0 | 2.0 | 3.0 | 9.0 | 0.0 | 2.0 | 0.0 | 0.0 | 0.0 | 0.0 | 0.0 | 2.0 | 5.0 |  |  |  | CYPSE [2, 7]: 7.0; CYPSE [2, 8]: 9.0; ECHORC [3, 8]: 6.0
4 | CC(Cl)c1nsc2ccc(-n3c(=O)cc(C(F)(F)F)n(C)c3=O)cc12 (stereo not shown) [Example 416, 2,4(1H,3H)-Pyrimidinedione, 3-[3-(1-chloroethyl)-1,2-benzisothiazol-5-yl]-1-methyl-6-(trifluoromethyl)-] | 7.0 | 7.0 | 7.0 | 9.0 | 4.0 | 4.0 | 4.0 | 8.0 | 0.0 | 0.0 | 0.0 | 3.0 | 3.0 | 6.0 | 7.0 | 9.0 | 9.0 |  |  |  | CYPSE [2, 7]: 0.0; CYPSE [2, 8]: 3.0; ECHORC [3, 8]: 9.0
5 | Cn1c(C(F)(F)F)cc(=O)n(-c2ccc3snc(C(=O)NS(=O)(=O)CCl)c3c2)c1=O [Example 334, 1,2-Benzisothiazole-3-carboxamide, N-[(chloromethyl)sulfonyl]-5-[3,6-dihydro-3-methyl-2,6-dioxo-4-(trifluoromethyl)-1(2H)-pyrimidinyl]-] |  |  |  |  |  |  |  |  |  |  |  |  |  |  |  |  |  | 0.0 | 0.0 | 3.0 | herbicidal effect rating, CYPIR (Cyperus iria; [9]): 3.0; herbicidal effect rating, CYPIR (Cyperus iria; [10]): 5.0; herbicidal effect rating, CYPIR (Cyperus iria; [11]): 6.0; herbicidal effect rating, CYPIR (Cyperus iria; [12]): 6.0; herbicidal effect rating, CYPSE [2, 9]: 0.0; herbicidal effect rating, CYPSE [2, 10]: 0.0; herbicidal effect rating, CYPSE [2, 11]: 2.0; herbicidal effect rating, CYPSE [2, 12]: 2.0; herbicidal effect rating, ECHORC [3, 9]: 0.0; herbicidal effect rating, ECHORC [3, 10]: 0.0; herbicidal effect rating, ECHORC [3, 11]: 0.0; herbicidal effect rating, ECHORC [3, 12]: 3.0; herbicidal effect rating ORYSAT ([4]; Rate 0.2500 kg/ha): 3.0; herbicidal effect rating, SAGPY (Sagittaria pygmaea, L.; [9]): 0.0; herbicidal effect rating, SAGPY (Sagittaria pygmaea, L.; [10]): 0.0; herbicidal effect rating, SAGPY (Sagittaria pygmaea, L.; [11]): 4.0; herbicidal effect rating, SAGPY (Sagittaria pygmaea, L.; [12]): 4.0
6 | CSc1ccc(C)cc1-c1nsc2ccc(-n3c(=O)cc(C(F)(F)F)n(C)c3=O)cc12 [Example 342, 2,4(1H,3H)-Pyrimidinedione, 1-methyl-3-{3-[6-(methylthio)-m-tolyl]-1,2-benzisothiazol-5-yl}-6-(trifluoromethyl)-] |  |  |  |  |  |  |  |  |  |  |  |  |  |  |  |  |  | 0.0 | 0.0 | 2.0 | herbicidal effect rating, CYPIR (Cyperus iria; [9]): 0.0; herbicidal effect rating, CYPIR (Cyperus iria; [10]): 0.0; herbicidal effect rating, CYPIR (Cyperus iria; [11]): 4.0; herbicidal effect rating, CYPIR (Cyperus iria; [12]): 8.0; herbicidal effect rating, CYPSE [2, 9]: 0.0; herbicidal effect rating, CYPSE [2, 10]: 0.0; herbicidal effect rating, CYPSE [2, 11]: 0.0; herbicidal effect rating, CYPSE [2, 12]: 9.0; herbicidal effect rating, ECHORC [3, 9]: 4.0; herbicidal effect rating, ECHORC [3, 10]: 4.0; herbicidal effect rating, ECHORC [3, 11]: 7.0; herbicidal effect rating, ECHORC [3, 12]: 7.0; herbicidal effect rating ORYSAT ([4]; Rate 0.2500 kg/ha): 3.0; herbicidal effect rating, SAGPY (Sagittaria pygmaea, L.; [9]): 0.0; herbicidal effect rating, SAGPY (Sagittaria pygmaea, L.; [10]): 0.0; herbicidal effect rating, SAGPY (Sagittaria pygmaea, L.; [11]): 0.0; herbicidal effect rating, SAGPY (Sagittaria pygmaea, L.; [12]): 2.0
7 | Cn1c(C(F)(F)F)cc(=O)n(-c2ccc3snc(-c4ccccc4OCC(=O)NS(=O)(=O)CCl)c3c2)c1=O [Example 344, Acetamide, N-[(chloromethyl)sulfonyl]-2-{o-{5-[3,6-dihydro-3-methyl-2,6-dioxo-4-(trifluoromethyl)-1(2H)-pyrimidinyl]-1,2-benzisothiazol-3-yl}phenoxy}-] |  |  |  |  |  |  |  |  |  |  |  |  |  |  |  |  |  | 2.0 | 5.0 | 5.0 | herbicidal effect rating, CYPIR (Cyperus iria; [9]): 6.0; herbicidal effect rating, CYPIR (Cyperus iria; [10]): 6.0; herbicidal effect rating, CYPIR (Cyperus iria; [11]): 7.0; herbicidal effect rating, CYPIR (Cyperus iria; [12]): 9.0; herbicidal effect rating, CYPSE [2, 9]: 6.0; herbicidal effect rating, CYPSE [2, 10]: 6.0; herbicidal effect rating, CYPSE [2, 11]: 6.0; herbicidal effect rating, CYPSE [2, 12]: 6.0; herbicidal effect rating, ECHORC [3, 9]: 4.0; herbicidal effect rating, ECHORC [3, 10]: 7.0; herbicidal effect rating, ECHORC [3, 11]: 7.0; herbicidal effect rating, ECHORC [3, 12]: 9.0; herbicidal effect rating ORYSAT ([4]; Rate 0.2500 kg/ha): 9.0; herbicidal effect rating, SAGPY (Sagittaria pygmaea, L.; [9]): 0.0; herbicidal effect rating, SAGPY (Sagittaria pygmaea, L.; [10]): 0.0; herbicidal effect rating, SAGPY (Sagittaria pygmaea, L.; [11]): 3.0; herbicidal effect rating, SAGPY (Sagittaria pygmaea, L.; [12]): 6.0
8 | CCC(=O)COC(=O)COc1ccc(C)cc1-c1nsc2ccc(-n3c(=O)cc(C(F)(F)F)n(C)c3=O)cc12 [Example 577, Acetic acid, {{2-{5-[3,6-dihydro-3-methyl-2,6-dioxo-4-(trifluoromethyl)-1(2H)-pyrimidinyl]-1,2-benzisothiazol-3-yl}-p-tolyl}oxy}-, 2-oxobutyl ester] |  |  |  |  |  |  |  |  |  |  |  |  |  |  |  |  |  | 4.0 | 5.0 | 5.0 | herbicidal effect rating, CYPIR (Cyperus iria; [13]): 2.0; herbicidal effect rating, CYPIR (Cyperus iria; [14]): 4.0; herbicidal effect rating, CYPIR (Cyperus iria; [15]): 7.0; herbicidal effect rating, CYPIR (Cyperus iria; [16]): 9.0; herbicidal effect rating, CYPSE [2, 13]: 0.0; herbicidal effect rating, CYPSE [2, 14]: 3.0; herbicidal effect rating, CYPSE [2, 15]: 3.0; herbicidal effect rating, CYPSE [2, 16]: 3.0; herbicidal effect rating, ECHORC [3, 13]: 6.0; herbicidal effect rating, ECHORC [3, 14]: 7.0; herbicidal effect rating, ECHORC [3, 15]: 7.0; herbicidal effect rating, ECHORC [3, 16]: 9.0; herbicidal effect rating ORYSAT ([4]; Rate 0.2500 kg/ha): 9.0; herbicidal effect rating, SAGPY (Sagittaria pygmaea, L.; [13]): 4.0; herbicidal effect rating, SAGPY (Sagittaria pygmaea, L.; [14]): 6.0; herbicidal effect rating, SAGPY (Sagittaria pygmaea, L.; [15]): 6.0; herbicidal effect rating, SAGPY (Sagittaria pygmaea, L.; [16]): 6.0
